This is an account of results in PubChem BioAssay (NCI).

Among the test systems are UACC-257 melanoma; MDA-MB-435; SNB-75 CNS; CCRF-CEM leukemia; TK-10 renal; DU-145 prostate; HCT-116 colon; RXF 393 renal; NCI-H460 lung; KM12 colon.
Common to all, as to assay: inhibition of tumour cell growth, NCI panel, 48 h

SMILES strings stand for the structures. Values joined by “and” are separate entries in the source; they are usually repeats but may differ in a detail not shown here. Identical values can stand only once.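 Cultured in 96-well plates, cells were exposed to test compound for 48 hours across five concentrations. Abbreviation: GI50, concentration required for 50% inhibition of growth. TGI: total growth inhibition.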

In the case of `CN(CSc1ccc(Cl)cc1)c1ccc(CSc2ccc(Cl)cc2)cc1`, the GI50 with UACC-257 melanoma was 10.3 µM; in the experiment with MDA-MB-435 it was 2.68 µM; with SNB-75 CNS, 2.93 µM; in the experiment on CCRF-CEM leukemia it was 0.704 µM; with TK-10 renal, 11.5 µM; in the experiment with DU-145 prostate, 6.69 µM. Besides, the GI50 was 3.06 µM in the experiment on HCT-116 colon, 8.28 µM in the experiment with RXF 393 renal, 3.65 µM in the experiment with NCI-H460 lung and 3.24 µM with KM12 colon. The TGI in the experiment with UACC-257 melanoma was 34.8 µM; with MDA-MB-435, 11.9 µM; with SNB-75 CNS, 16.1 µM; with CCRF-CEM leukemia, above 100 µM; in the experiment with TK-10 renal, 31.7 µM; in the experiment with DU-145 prostate, 25.3 µM. The TGI in the experiment on HCT-116 colon was determined as 11.9 µM; with RXF 393 renal, 23.6 µM; in the experiment on NCI-H460 lung it was 15.6 µM; in the experiment with KM12 colon, 15.1 µM.

On to `NC(=N\N=C/c1ccc(Cl)cc1Cl)/C(N)=N\N=C/c1ccc(Cl)cc1Cl`, for which the GI50 in the experiment with UACC-257 melanoma is above 100 µM; with MDA-MB-435, above 100 µM; with SNB-75 CNS it was 1.65 µM; with CCRF-CEM leukemia, 36.5 µM; in the experiment with TK-10 renal, 1.25 µM; with DU-145 prostate it was above 100 µM. The GI50 was 1.19 µM with HCT-116 colon, 12.8 µM in the experiment with RXF 393 renal, 0.795 µM with NCI-H460 lung and above 100 µM in the experiment with KM12 colon. The TGI in the experiment with UACC-257 melanoma is above 100 µM; in the experiment with MDA-MB-435, above 100 µM; with SNB-75 CNS, 13.4 µM; with CCRF-CEM leukemia, above 100 µM; in the experiment on TK-10 renal, 16.7 µM; in the experiment with DU-145 prostate, above 100 µM. Further, the TGI in the experiment with HCT-116 colon is above 100 µM; with RXF 393 renal it was 63.9 µM; in the experiment with NCI-H460 lung, above 100 µM; in the experiment with KM12 colon, above 100 µM.

`O=C(Nc1ccc(I)cc1)c1cccc([N+](=O)[O-])c1O`: the GI50 with UACC-257 melanoma was 2.96 µM; with MDA-MB-435 it was 3.07 µM; in the experiment with SNB-75 CNS it was 2.77 µM; with CCRF-CEM leukemia, 2.76 µM; with TK-10 renal it was 3.56 µM; in the experiment on DU-145 prostate it was 6.46 µM. The GI50 with HCT-116 colon was 3.11 µM; in the experiment on RXF 393 renal, 2.49 µM; with NCI-H460 lung, 3.86 µM; in the experiment with KM12 colon, 4.05 µM. Moreover, the TGI is 8.57 µM in the experiment with UACC-257 melanoma; above 100 µM with MDA-MB-435; 38.6 µM with SNB-75 CNS; 29.7 µM in the experiment with CCRF-CEM leukemia; above 100 µM in the experiment on TK-10 renal; above 100 µM with DU-145 prostate. For the same compound, the TGI is 13.8 µM with HCT-116 colon, 9.09 µM in the experiment with RXF 393 renal, above 100 µM in the experiment on NCI-H460 lung and above 100 µM in the experiment on KM12 colon.

For the compound `C=C1C(=O)OC2CC1C(OC(C)=O)C/C(C)=C/CC/C(C)=C\CCC2(C)O` (centres undefined), the TGI in the experiment on UACC-257 melanoma is 18.7 µM and 12.7 µM; with MDA-MB-435, 18.6 µM; in the experiment with SNB-75 CNS it was 29.7 µM and 24.3 µM; with TK-10 renal, 12.4 µM and 16.1 µM; in the experiment on DU-145 prostate, 14.6 µM and 23.1 µM; in the experiment with HCT-116 colon, 12.2 µM and 7.66 µM. In addition, the TGI in the experiment with RXF 393 renal was 14 µM; in the experiment on NCI-H460 lung, 14.1 µM and 8.22 µM; in the experiment on KM12 colon, 32.3 µM and 19.4 µM. Further, the GI50 was 0.469 µM and 2.36 µM in the experiment with CCRF-CEM leukemia; 11.6 µM and 5.11 µM in the experiment with KM12 colon.

Consider `O=C(/C=C/c1cccc(S(=O)(=O)Nc2ccccc2)c1)NO`, for which the GI50 with UACC-257 melanoma was 0.553 µM and 0.25 µM; with MDA-MB-435, 0.29 µM and 0.194 µM; in the experiment on TK-10 renal, 0.215 µM and 0.024 µM; with DU-145 prostate it was 0.444 µM and 0.111 µM; with HCT-116 colon, 0.206 µM and 0.0391 µM; in the experiment on RXF 393 renal, 0.342 µM and 0.101 µM. Moreover, the GI50 was 0.376 µM and 0.116 µM with NCI-H460 lung; 0.426 µM and 0.0714 µM in the experiment with KM12 colon. Moreover, the TGI with UACC-257 melanoma was 10.8 µM and > 100 µM; in the experiment on MDA-MB-435, 3.48 µM and 2.07 µM; in the experiment on SNB-75 CNS, 58.1 µM and > 54 µM; in the experiment on CCRF-CEM leukemia, 58.2 µM and > 100 µM; in the experiment with TK-10 renal it was 3.19 µM and 1.73 µM; with DU-145 prostate, 17.8 µM. Moreover, the TGI was 1.18 µM in the experiment with HCT-116 colon; 1.79 µM and 1.88 µM with RXF 393 renal; 34 µM and 5.42 µM with NCI-H460 lung; 9.14 µM and 10.7 µM in the experiment with KM12 colon.

Regarding `COc1ccc(C2CC(c3ccc4ccccc4c3)=NN2c2nc(O)c(C3=c4cc(OC)ccc4=NC3=O)s2)cc1` (centres undefined), the GI50 in the experiment with UACC-257 melanoma was 0.718 µM; with MDA-MB-435 it was 0.0351 µM; in the experiment with SNB-75 CNS it was 0.0779 µM; with CCRF-CEM leukemia it was 0.284 µM; in the experiment with TK-10 renal it was 0.0905 µM; with DU-145 prostate it was 0.0449 µM. The GI50 in the experiment on HCT-116 colon is 0.243 µM; in the experiment on RXF 393 renal, 0.0266 µM; with NCI-H460 lung, 0.0226 µM; with KM12 colon it was 0.0856 µM. The TGI in the experiment on UACC-257 melanoma is 6.14 µM; with MDA-MB-435 it was 0.134 µM; in the experiment with SNB-75 CNS, 0.445 µM; with CCRF-CEM leukemia it was above 43.3 µM; with TK-10 renal it was 0.371 µM; in the experiment on DU-145 prostate, 14.1 µM. Further, the TGI was 0.66 µM with HCT-116 colon, 0.0831 µM in the experiment on RXF 393 renal, 0.0473 µM with NCI-H460 lung and 0.286 µM in the experiment on KM12 colon.

For the compound `CC(C)OCc1cc(CN2CCN(c3cccc(Cl)c3)CC2)c(O)c2ncccc12`, the GI50 in the experiment on UACC-257 melanoma was 1.56 µM; with MDA-MB-435 it was 0.923 µM; in the experiment on SNB-75 CNS, 1.19 µM; with CCRF-CEM leukemia, 0.383 µM; in the experiment with TK-10 renal, 0.837 µM; in the experiment on DU-145 prostate it was 0.876 µM. For the same compound, the GI50 in the experiment with HCT-116 colon is 0.425 µM; in the experiment on RXF 393 renal, 2.87 µM; with NCI-H460 lung, 0.41 µM; with KM12 colon, 0.574 µM. The TGI is 9.58 µM with UACC-257 melanoma; 11.4 µM with MDA-MB-435; 14.4 µM with SNB-75 CNS; 9.89 µM in the experiment on CCRF-CEM leukemia; 21 µM with TK-10 renal; 14.7 µM in the experiment with DU-145 prostate. Further, the TGI in the experiment with HCT-116 colon was determined as 3.79 µM; with RXF 393 renal, 20.2 µM; in the experiment on NCI-H460 lung, 11.2 µM; in the experiment on KM12 colon, 13.2 µM.
